Measurements: PubChem BioAssay AID1963834 (Molecular Pharmacology Branch, DTP, NCI, 2024)
Where “and” joins values, the source holds several entries; their conditions need not be identical. Equal values may be shown once.

Test system: 873145-292-R-J1-PDC complex spheroid viability
Assay: Anticancer human tumor 873145-292-R-J1-PDC patient-derived renal clear cell carcinoma cell line growth inhibition [POLQ]
Conditions: for viability, T/C: stronger effect = lower value
Method: Multicellular complex tumor spheroid response to Polymerase (POL) inhibitors (novobiocin, ART-558, RP6685) in combination with a variety of drugs and investigational agents in selected tumor cell lines
The POL inhibitors (novobiocin, ART-558, and RP6685) were evaluated both individually and in combination with standard of care and investigational anticancer small molecules within a complex spheroid model of solid tumors. . Complex spheroids include a stromal component modeled by human endothelial cells (HUVEC) and fibroblasts modeled by human mesenchymal stem cells (MSCs). The concentration ranges selected for each drug and investigational agent were based upon clinically achievable concentrations if the clinical Cmax of the agent was known.
Compounds. The drugs and investigational agents: novobiocin (NSC847541), ART-558 (NSC835418), RP-6685 (NSC848927), peposertib (NSC802822), ceralasertib (NSC780249), elimusertib (NSC800525), camonsertib (NSC841442), AZD-1390 (NSC803789), olaparib (NSC753686), talazoparib (NSC767125), rucaparib (NSC756644), sotorasib (NSC818433), MRTX-1133 (NSC836407), SN-38 (NSC673596), topotecan (NSC609699), epotoside (NSC141540), doxorubicin (NSC123127), gemcitabine (NSC613327), 5-fluorouracil (NSC19893), paclitaxel (NSC125973), vemurafenib (NSC761431), MSA-2 (NSC828583), SN-011 (NSC837082), adavosertib (NSC754352), prexasertib (NSC758257), carboplatin (NSC241240) and oxaliplatin (NSC266046), were obtained from the National Cancer Institute (NCI) Developmental Therapeutics Program Chemical Repository (21). The FDA-approved anticancer drug set is available from the Developmental Therapeutics Program at https://dtp.cancer.gov/organization/dscb/obtaining/. […] The stock solutions were prepared in dimethyl sulfoxide (DMSO, Sigma-Aldrich, St. Louis, MO, cat. D2650), except for the platinum compounds which were prepared in saline (Quality Biological, Gaithersburg, MD, cat. 114-055-101), at 800-fold the tested concentration and stored at -70 degrees C prior to their use. All drugs and investigational agents were tested over a range starting from a high concentration at or near the clinical Cmax and decreasing in half-log increments. If the clinical Cmax for an agent had not been determined, the highest concentration tested was 10 microM, except for SN-38, which was tested at a high concentration of 1 microM.
Cell Culture. All cells were maintained in an incubator at 37 degrees C and 5% CO2 with 95% humidity. The PDC lines were cultured according to standard operating procedures established by the NCI PDMR (https://pdmr.cancer.gov). Table 3 of the manuscript, lists the cell lines along with the number of the three cell types plated to form the mct-spheroids and media for tumor cell growth. After thawing, all PDC lines, except 997537-175-T-J1-PDC and 415267-285-R-J2-PDC, were cultured in Matrigel-coated flasks prepared with a working solution of 1X Ham's F-12 nutrient mix, without supplementation (Thermo Fisher Scientific, cat. 11765054), 100 U/mL penicillin-streptomycin (Thermo Fisher Scientific, cat. 15140122), and 2.5% Matrigel (Corning Inc., Corning, NY, cat. 354248) for the first three passages. The two PDC lines 997537-175-T-J1-PDC and 415267-285-R-J2-PDC were cultured on uncoated flasks. The 857933-349-R-J2-PDC line was cultured in 6C/Colon 1B media containing advanced DMEM/F-12 (Thermo Fisher Scientific, cat. 12634028), 10 mM HEPES (Thermo Fisher Scientific, cat. 15630080), 1X GlutaMAX supplement (Thermo Fisher Scientific, cat. 35050061), 0.1 mg/mL primocin (InvivoGen, San Diego, CA, cat. ant-pm-2), 10% defined fetal bovine serum, heat inactivated (HyClone Laboratories Inc., Logan, UT, cat. SH30070.03HI), 50% L-WRN conditioned media (ATCC, cat. CRL-3276), 1.25 mM N-Acetyl-L-cysteine (Sigma-Aldrich, cat. A9165), 10 mM nicotinamide (Sigma-Aldrich, cat. N0636), 1X B-27 supplement (Thermo Fisher Scientific, cat. 17504044), 1X N-2 supplement (Thermo Fisher Scientific, cat. […]

[1] = compound alone, run of 01/08/2024
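Further: spheroids exposed to compounds for 7 days before viability readout.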
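Wherever viability, T/C is given: luminescence signal used as surrogate for viable cell content; 100% = DMSO vehicle control viability.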

| IC50 (compound alone, run of 01/19/2024) [nM] | SMILES | viability, T/C (compound 0.00316 µM) | viability, T/C (compound 0.01 µM) | viability, T/C (compound 0.0316 µM) | viability, T/C (compound 0.1 µM) | viability, T/C (compound 0.316 µM) | viability, T/C (compound 1 µM) | IC50 (curve of compound) | viability, T/C (compound 0.00949 µM) | viability, T/C (compound 0.03 µM) | viability, T/C (compound 0.0949 µM) | viability, T/C (compound 0.3 µM) | viability, T/C (compound 0.949 µM) | viability, T/C (compound 3 µM) | viability, T/C (compound 3.16 µM) | viability, T/C (compound 10 µM) | viability, T/C (compound 0.000316 µM) | viability, T/C (compound 0.001 µM) | IC50 [1] [nM] |
| --- | --- | --- | --- | --- | --- | --- | --- | --- | --- | --- | --- | --- | --- | --- | --- | --- | --- | --- | --- |
|  | C=CCn1c(=O)c2cnc(Nc3ccc(N4CCN(C)CC4)cc3)nc2n1-c1cccc(C(C)(C)O)n1 | 106% and 97.8% and 112% | 95.9% and 105% and 90.5% | 104% and 92.5% and 97.3% | 101% and 97.8% and 97.9% | 76.4% and 84.9% and 85.7% | 74.7% and 77.3% and 80% | > 1000 nM |  |  |  |  |  |  |  |  |  |  |  |
|  | CC(=O)O[C@H]1C(=O)[C@@]2(C)[C@H]([C@H](OC(=O)c3ccccc3)[C@]3(O)C[C@H](OC(=O)[C@H](O)[C@@H](NC(=O)c4ccccc4)c4ccccc4)C(C)=C1C3(C)C)[C@]1(OC(C)=O)CO[C@@H]1C[C@@H]2O |  |  |  |  |  |  | > 3000 nM | 79.4% and 83.2% and 84.7% | 83.6% and 72.1% and 70.3% | 74% and 72.5% and 60.7% | 70.2% and 65.1% and 65.8% | 69.9% and 66.2% and 67.9% | 63.5% and 72.9% and 57.8% |  |  |  |  |  |
|  | CC1COCCN1c1cc(C2(S(C)(=N)=O)CC2)nc(-c2ccnc3[nH]ccc23)n1 (configuration not stated) |  |  | 91.7% and 96% and 106% | 97.2% and 92.7% and 96.5% | 113% and 91.9% and 99.5% | 88.5% and 94.4% and 104% | > 10000 nM |  |  |  |  |  |  | 81.9% and 85.5% and 81.5% | 58% and 64.2% and 54.1% |  |  |  |
|  | CCCS(=O)(=O)Nc1ccc(F)c(C(=O)c2c[nH]c3ncc(-c4ccc(Cl)cc4)cc23)c1F |  |  | 113% and 104% and 102% | 96.8% and 107% and 99.6% | 109% and 103% and 107% | 95.2% and 107% and 104% | > 10000 nM |  |  |  |  |  |  | 109% and 98.7% and 92.9% | 76.7% and 72.3% and 60.6% |  |  |  |
|  | CC[C@@]1(O)C(=O)OCc2c1cc1n(c2=O)Cc2cc3c(CN(C)C)c(O)ccc3nc2-1 | 93.4% and 95.2% and 101% | 92.8% and 107% and 103% | 84.9% and 95.7% and 77.4% | 59.5% and 63.6% and 48.9% |  |  | > 100 nM and 95.5 nM |  |  |  |  |  |  |  |  | 96.5% and 108% and 99.8% | 94.6% and 99.2% and 92.7% |  |
|  | CCc1c2c(nc3ccc(O)cc13)-c1cc3c(c(=O)n1C2)COC(=O)[C@]3(O)CC | 94.8% and 105% and 94% | 77.7% and 88.3% and 80.5% | 50.6% and 60% and 54.1% | 49.2% and 52.5% and 41.1% | 37.8% and 45.3% and 34.1% | 30.3% and 37.3% and 29.6% | 62.3 nM and 99.3 nM and 48.2 nM |  |  |  |  |  |  |  |  |  |  |  |
|  | CNCc1ccc(-c2[nH]c3cc(F)cc4c3c2CCNC4=O)cc1 |  |  | 108% and 93.3% and 101% | 101% and 96% and 102% | 102% and 103% and 97.2% | 103% and 91.5% and 93.2% | > 10000 nM |  |  |  |  |  |  | 94.7% and 95.1% and 93.3% | 99.7% and 98% and 92.6% |  |  |  |
|  | COC1C(OC(N)=O)C(O)C(Oc2ccc3c(O)c(NC(=O)c4ccc(O)c(CC=C(C)C)c4)c(=O)oc3c2C)OC1(C)C (configuration not stated) |  |  | 93.7% [middle of 13 runs] |  | 102% [middle of 13 runs] | 99.8% [middle of 13 runs] |  |  |  |  |  |  |  | 102% [middle of 13 runs] | 98.3% [middle of 13 runs] |  |  | > 10000 |
|  | COc1cc(C2c3cc4c(cc3C(OC3OC5COC(C)OC5C(O)C3O)C3COC(=O)C23)OCO4)cc(OC)c1O (configuration not stated) |  |  | 95.1% and 110% and 113% | 94.9% and 101% and 95.3% | 98.2% and 106% and 94.5% | 95.1% and 95.9% and 102% | > 10000 nM |  |  |  |  |  |  | 67% and 80.8% and 85.2% | 56.9% and 68.2% and 66% |  |  |  |
|  | COc1cccc(OCCCN)c1-c1cc(Nc2cnc(C#N)cn2)n[nH]1 | 103% and 116% and 101% | 89.6% and 98.2% and 94.2% | 68.6% and 71.2% and 98.3% | 60.8% and 74% and 71.8% | 63.5% and 75.3% and 79.5% | 72.4% and 84.5% and 73.1% | > 1000 nM |  |  |  |  |  |  |  |  |  |  |  |
|  | COc1cccc2c1C(=O)c1c(O)c3c(c(O)c1C2=O)CC(O)(C(=O)CO)CC3OC1CC(N)C(O)C(C)O1 (configuration not stated) |  |  | 79.5% and 101% and 88.3% | 68.8% and 87.2% and 90.1% | 70.1% and 92.2% and 85.7% | 68.8% and 84.2% and 79.3% | 1390 nM and 1650 nM and 1570 nM |  |  |  |  |  |  | 3.4% and 5.11% and 4.22% | 2.7% and 3.08% and 3.02% |  |  |  |
| > 10000 | Cc1cccc(N(C)C(=O)C2C(O)CCN2c2nc(C)cc(C(F)(F)F)c2C#N)c1 (configuration not stated) |  |  | 93.4% [middle of 13 runs] | 97.4% [middle of 13 runs] | 98.9% [middle of 13 runs] | 99.9% [middle of 13 runs] |  |  |  |  |  |  |  | 99.1% [middle of 13 runs] | 95.5% [middle of 11 runs] |  |  | > 10000 |
|  | Cn1ncnc1[C@H]1c2n[nH]c(=O)c3cc(F)cc(c23)N[C@@H]1c1ccc(F)cc1 | 91.2% and 96.3% and 103% | 107% and 97.5% and 102% | 108% and 102% and 94.4% | 101% and 97.9% and 88.9% |  |  | > 100 nM |  |  |  |  |  |  |  |  | 99.5% and 108% and 99.7% | 102% and 92.8% and 98% |  |
|  | Nc1ccn(C2OC(CO)C(O)C2(F)F)c(=O)n1 (configuration not stated) |  |  | 64.3% and 74.6% and 56.8% | 55.4% and 57.4% and 46.8% | 50.4% and 59.5% and 57.8% | 58.3% and 53% and 55.6% | > 10000 nM and 1860 nM |  |  |  |  |  |  | 55.6% and 60% and 51.4% | 49.7% and 56.7% and 41.6% |  |  |  |
|  | O=C(c1cc(Cc2n[nH]c(=O)c3ccccc23)ccc1F)N1CCN(C(=O)C2CC2)CC1 |  |  | 99.8% and 99.5% and 107% | 96.2% and 91.1% and 106% | 91.9% and 115% and 107% | 104% and 97.4% (2×) | > 10000 nM |  |  |  |  |  |  | 98.6% and 112% and 104% | 91.7% and 95.1% and 102% |  |  |  |
|  | O=c1[nH]cc(F)c(=O)[nH]1 |  |  | 90.7% and 101% and 99.7% | 98.1% and 101% and 92.8% | 93.2% and 92.1% and 94.4% | 99.2% and 101% and 92% | > 10000 nM |  |  |  |  |  |  | 107% and 102% and 96.4% | 99.7% and 106% and 94.3% |  |  |  |
